Laboratory results from ChEMBL document CHEMBL4402573, “Discovery and Optimization of α-Mangostin Derivatives as Novel PDE4 Inhibitors for the Treatment of Vascular Dementia” (J Med Chem, 2020).
Calls of active or inactive are those of the source. No cut-off for these calls is given here.

Key:
[1] = molecular target: Dual specificity calcium/calmodulin-dependent 3',5'-cyclic nucleotide phosphodiesterase 1B (Homo sapiens, UniProt Q01064); experiment: Inhibition of human PDE1B (10 to 487 residues) expressed in Escherichia coli BL21 codon-plus cells using [3H]cAMP as substrate incubated for 15 mins by liquid scintillation counting method
Homo sapiens [2] = species on record: Homo sapiens; experiment: Selectivity index, ratio of IC50 for human PDE7A1 (130 to 482 residues) expressed in Escherichia coli BL21 codon-plus cells to IC50 for human PDE4D2 (86 to 413 residues) expressed in Escherichia coli BL21 codon-plus cells
Mus musculus [3] = experiment: Anti-VaD activity against UCCAO-induced spatial memory deficient C57BL/6J mouse model assessed as improvement in spatial learning and memory by measuring reduction in escape latency at 10 mg/kg, po administered for 21 days by Morris water maze test; assay type: functional, organism-based
Mus musculus [4] = experiment: Anti-VaD activity against UCCAO-induced spatial memory deficient C57BL/6J mouse model assessed as improvement in spatial learning and memory by measuring decrease in error time at 10 mg/kg, po administered for 21 days by passive avoidance test; assay type: functional, organism-based
[5] = Toxicity in Beagle dog assessed as animals exhibiting emesis at 10 mg/kg, po observed for 180 mins; assay type: organism-based, Canis lupus familiaris; details: in vivo, 3 h
[6] = molecular target: High affinity 3',5'-cyclic-AMP phosphodiesterase 7A (Homo sapiens, UniProt Q13946); experiment: Inhibition of human PDE7A1 (130 to 482 residues) expressed in Escherichia coli BL21 codon-plus cells using [3H]cAMP as substrate incubated for 15 mins by liquid scintillation counting method
[7] = Half life in Sprague-Dawley rat at 5 mg/kg, po measured upto 24 hrs by LC-MS/MS analysis; assay type: ADME, organism-based; details: in vivo
Cytochrome P450 2B6 = Cytochrome P450 2B6 (Homo sapiens, UniProt P20813); experiment: Inhibition of human CYP2B6; assay type: ADME
[8] = molecular target: cAMP and cAMP-inhibited cGMP 3',5'-cyclic phosphodiesterase 10A (Homo sapiens, UniProt Q9Y233); experiment: Inhibition of human PDE10A2 (449 to 770 residues) expressed in Escherichia coli BL21 codon-plus cells using [3H]cAMP as substrate incubated for 15 mins followed by substrate addition by liquid scintillation counting method
[9] = Protein binding in rat plasma at 1 uM by LC-MS/MS analysis; assay type: ADME, cell-free; details: read-out: PPB
[10] = AUC(0 to infinity) in Sprague-Dawley rat at 5 mg/kg, po measured upto 24 hrs by LC-MS/MS analysis; assay type: ADME, organism-based; set-up: dose 5 mg/kg, time infinity, route oral; details: in vivo
[11] = Half life in Sprague-Dawley rat at 2.5 mg/kg, iv measured upto 24 hrs by LC-MS/MS analysis; assay type: ADME, organism-based; details: in vivo
Homo sapiens [12] = species on record: Homo sapiens; experiment: Selectivity index, ratio of IC50 for human PDE3A (679 to 1087 residues) expressed in Escherichia coli BL21 codon-plus cells to IC50 for human PDE4D2 (86 to 413 residues) expressed in Escherichia coli BL21 codon-plus cells
[13] = AUC(0 to infinity) in Sprague-Dawley rat at 2.5 mg/kg, iv measured upto 24 hrs by LC-MS/MS analysis; assay type: ADME, organism-based; set-up: dose 2.5 mg/kg, route intravenous, time infinity; details: in vivo
Cytochrome P450 2C9 = Cytochrome P450 2C9 (Homo sapiens, UniProt P11712); experiment: Inhibition of human CYP2C9; assay type: ADME
Cytochrome P450 1A2 = Cytochrome P450 1A2 (Homo sapiens, UniProt P05177); experiment: Inhibition of human CYP1A2; assay type: ADME
[14] = molecular target: T1, 3',5'-cyclic-AMP phosphodiesterase 4B (Homo sapiens, UniProt Q07343); experiment: Partial inhibition of human PDE4B1 (1 to 736 residues) expressed in Escherichia coli BL21 codon-plus cells using [3H]cAMP as substrate incubated with compound at high concentrations for 15 mins by liquid scintillation counting method relative to control
[15] = Acute toxicity in Kunming mouse at >=1.5 g/kg, po administered as single dose and measured for 14 days; assay type: organism-based; details: in vivo, 1500 mg/kg, 336 h
[16] = molecular target: High affinity cGMP-specific 3',5'-cyclic phosphodiesterase 9A (Homo sapiens, UniProt O76083); experiment: Inhibition of human PDE9A2 (181 to 506 residues) expressed in Escherichia coli BL21 codon-plus cells using [3H]cGMP as substrate incubated for 15 mins by liquid scintillation counting method
Homo sapiens [17] = species on record: Homo sapiens; experiment: Selectivity index, ratio of IC50 for human PDE2A (580 to 919 residues) expressed in Escherichia coli BL21 codon-plus cells to IC50 for human PDE4D2 (86 to 413 residues) expressed in Escherichia coli BL21 codon-plus cells
Homo sapiens [18] = species on record: Homo sapiens; experiment: Selectivity index, ratio of IC50 for human PDE10A2 (449 to 770 residues) expressed in Escherichia coli BL21 codon-plus cells to IC50 for human PDE4D2 (86 to 413 residues) expressed in Escherichia coli BL21 codon-plus cells
Mus musculus [19] = experiment: Anti-VaD activity against UCCAO-induced spatial memory deficient C57BL/6J mouse model assessed as improvement in spatial learning and memory by measuring increase in frequency of platform area crossings at 10 mg/kg, po administered for 21 days by Morris water maze test; assay type: functional, organism-based
[20] = AUC(0 to t) in Sprague-Dawley rat at 5 mg/kg, po measured upto 24 hrs by LC-MS/MS analysis; assay type: ADME, organism-based; set-up: dose 5 mg/kg, time < 24 hr, route oral; details: in vivo
Homo sapiens [21] = species on record: Homo sapiens; experiment: Selectivity index, ratio of IC50 for human PDE1B (10 to 487 residues) expressed in Escherichia coli BL21 codon-plus cells to IC50 for human PDE4D2 (86 to 413 residues) expressed in Escherichia coli BL21 codon-plus cells
[22] = molecular target: cGMP-dependent 3',5'-cyclic phosphodiesterase (Homo sapiens, UniProt O00408); experiment: Inhibition of human PDE2A (580 to 919 residues) expressed in Escherichia coli BL21 codon-plus cells using [3H]cGMP as substrate incubated for 15 mins by liquid scintillation counting method
[23] = molecular target: T1, 3',5'-cyclic-AMP phosphodiesterase 4B; experiment: Inhibition of human PDE4B1 (1 to 736 residues) expressed in Escherichia coli BL21 codon-plus cells using [3H]cAMP as substrate incubated for 15 mins by liquid scintillation counting method
[24] = AUC(0 to t) in Sprague-Dawley rat at 2.5 mg/kg, iv measured upto 24 hrs by LC-MS/MS analysis; assay type: ADME, organism-based; set-up: dose 2.5 mg/kg, time < 24 hr, route intravenous; details: in vivo
[25] = molecular target: T1, 3',5'-cyclic-AMP phosphodiesterase 4B; experiment: Inhibition of human PDE4B2 (152 to 487 residues) expressed in Escherichia coli BL21 codon-plus cells using [3H]cAMP as substrate incubated for 15 mins by liquid scintillation counting method
Homo sapiens [26] = species on record: Homo sapiens; experiment: Selectivity index, ratio of IC50 for human PDE9A2 (181 to 506 residues) expressed in Escherichia coli BL21 codon-plus cells to IC50 for human PDE4D2 (86 to 413 residues) expressed in Escherichia coli BL21 codon-plus cells
[27] = Inhibition of human PDE4D7 (1 to 748 residues) expressed in Escherichia coli BL21 codon-plus cells using [3H]cAMP as substrate incubated for 15 mins by liquid scintillation counting method
[28] = Oral bioavailability in Sprague-Dawley rat at 5 mg/kg measured upto 24 hrs by LC-MS/MS analysis; assay type: ADME, organism-based; details: in vivo
[29] = Tmax in Sprague-Dawley rat at 2.5 mg/kg, iv measured upto 24 hrs by LC-MS/MS analysis; assay type: ADME, organism-based; details: in vivo

T1 sequence (Q07343 whole entry, the tested form may be a part): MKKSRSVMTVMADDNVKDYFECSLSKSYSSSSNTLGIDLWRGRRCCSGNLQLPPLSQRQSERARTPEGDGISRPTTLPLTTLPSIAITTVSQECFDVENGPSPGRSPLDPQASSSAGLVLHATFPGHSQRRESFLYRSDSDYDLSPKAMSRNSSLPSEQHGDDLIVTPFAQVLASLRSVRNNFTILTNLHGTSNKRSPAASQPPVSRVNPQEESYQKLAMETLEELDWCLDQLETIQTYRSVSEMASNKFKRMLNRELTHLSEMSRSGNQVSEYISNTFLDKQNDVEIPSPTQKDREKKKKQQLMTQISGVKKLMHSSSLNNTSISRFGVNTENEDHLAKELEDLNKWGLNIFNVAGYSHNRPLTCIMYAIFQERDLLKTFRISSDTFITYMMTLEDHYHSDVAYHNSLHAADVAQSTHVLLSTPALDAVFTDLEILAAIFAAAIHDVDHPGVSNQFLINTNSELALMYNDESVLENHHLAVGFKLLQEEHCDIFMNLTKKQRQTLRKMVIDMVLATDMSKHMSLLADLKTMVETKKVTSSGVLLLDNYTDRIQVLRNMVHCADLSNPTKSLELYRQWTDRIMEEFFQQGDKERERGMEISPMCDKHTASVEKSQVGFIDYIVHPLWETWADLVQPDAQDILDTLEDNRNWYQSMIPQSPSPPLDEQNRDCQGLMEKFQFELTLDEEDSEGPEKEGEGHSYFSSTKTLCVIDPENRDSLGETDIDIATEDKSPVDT
Chain of High affinity 3',5'-cyclic-AMP phosphodiesterase 7A (Q13946 whole entry, the tested form may be a part): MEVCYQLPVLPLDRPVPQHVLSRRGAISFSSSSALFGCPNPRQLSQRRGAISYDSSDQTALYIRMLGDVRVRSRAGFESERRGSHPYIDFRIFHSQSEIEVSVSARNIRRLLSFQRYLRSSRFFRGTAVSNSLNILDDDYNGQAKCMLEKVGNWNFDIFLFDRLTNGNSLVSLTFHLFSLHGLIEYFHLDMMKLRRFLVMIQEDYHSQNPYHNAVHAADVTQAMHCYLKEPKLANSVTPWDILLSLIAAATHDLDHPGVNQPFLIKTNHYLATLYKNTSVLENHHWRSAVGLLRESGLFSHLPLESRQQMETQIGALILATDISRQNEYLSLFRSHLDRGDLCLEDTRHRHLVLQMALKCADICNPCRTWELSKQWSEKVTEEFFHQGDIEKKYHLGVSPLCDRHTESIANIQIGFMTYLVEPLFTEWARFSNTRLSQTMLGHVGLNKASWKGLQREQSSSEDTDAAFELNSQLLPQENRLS
Chain of cAMP and cAMP-inhibited cGMP 3',5'-cyclic phosphodiesterase 10A (Q9Y233 whole entry, the tested form may be a part): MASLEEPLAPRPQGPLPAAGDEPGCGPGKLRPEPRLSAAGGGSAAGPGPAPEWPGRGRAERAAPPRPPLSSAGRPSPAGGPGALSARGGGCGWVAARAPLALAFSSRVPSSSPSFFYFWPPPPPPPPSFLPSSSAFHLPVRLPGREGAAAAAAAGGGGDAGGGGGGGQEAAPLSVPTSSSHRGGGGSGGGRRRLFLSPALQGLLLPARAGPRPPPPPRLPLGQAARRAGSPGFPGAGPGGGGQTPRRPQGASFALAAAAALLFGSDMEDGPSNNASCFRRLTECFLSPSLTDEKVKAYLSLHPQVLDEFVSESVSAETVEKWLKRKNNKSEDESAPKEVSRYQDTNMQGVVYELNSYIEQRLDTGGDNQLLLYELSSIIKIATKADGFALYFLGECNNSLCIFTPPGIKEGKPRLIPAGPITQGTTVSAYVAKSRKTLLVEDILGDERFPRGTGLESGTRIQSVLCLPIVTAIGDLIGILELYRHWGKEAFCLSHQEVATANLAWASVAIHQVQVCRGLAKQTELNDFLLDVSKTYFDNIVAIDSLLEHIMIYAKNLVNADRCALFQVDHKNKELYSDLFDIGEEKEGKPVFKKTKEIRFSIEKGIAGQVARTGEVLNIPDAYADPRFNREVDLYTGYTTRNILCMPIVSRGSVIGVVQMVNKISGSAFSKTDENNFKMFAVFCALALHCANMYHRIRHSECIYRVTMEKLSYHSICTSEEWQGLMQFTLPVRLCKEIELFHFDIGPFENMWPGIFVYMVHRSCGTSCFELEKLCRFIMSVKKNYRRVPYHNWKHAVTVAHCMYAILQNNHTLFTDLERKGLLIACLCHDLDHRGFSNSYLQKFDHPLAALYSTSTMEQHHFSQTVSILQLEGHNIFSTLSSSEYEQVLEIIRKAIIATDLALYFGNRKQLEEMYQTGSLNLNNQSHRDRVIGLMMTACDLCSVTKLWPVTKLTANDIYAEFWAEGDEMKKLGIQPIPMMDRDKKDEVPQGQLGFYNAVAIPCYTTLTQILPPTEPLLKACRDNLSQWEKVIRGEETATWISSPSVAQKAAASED
Chain of Cytochrome P450 2B6 (P20813 whole entry, the tested form may be a part): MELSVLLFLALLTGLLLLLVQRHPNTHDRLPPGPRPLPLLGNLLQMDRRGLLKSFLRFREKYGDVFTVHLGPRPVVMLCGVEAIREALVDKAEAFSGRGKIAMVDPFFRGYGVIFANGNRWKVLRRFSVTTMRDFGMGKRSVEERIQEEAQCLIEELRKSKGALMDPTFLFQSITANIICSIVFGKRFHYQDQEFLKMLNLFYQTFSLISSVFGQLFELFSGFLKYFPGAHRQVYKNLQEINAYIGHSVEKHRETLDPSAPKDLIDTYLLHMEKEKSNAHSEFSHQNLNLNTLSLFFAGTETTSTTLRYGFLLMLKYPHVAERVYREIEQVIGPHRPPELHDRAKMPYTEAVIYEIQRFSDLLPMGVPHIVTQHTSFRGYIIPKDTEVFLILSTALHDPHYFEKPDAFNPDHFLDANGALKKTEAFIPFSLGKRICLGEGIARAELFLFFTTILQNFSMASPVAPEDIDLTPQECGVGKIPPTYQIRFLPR
Chain of Dual specificity calcium/calmodulin-dependent 3',5'-cyclic nucleotide phosphodiesterase 1B (Q01064 whole entry, the tested form may be a part): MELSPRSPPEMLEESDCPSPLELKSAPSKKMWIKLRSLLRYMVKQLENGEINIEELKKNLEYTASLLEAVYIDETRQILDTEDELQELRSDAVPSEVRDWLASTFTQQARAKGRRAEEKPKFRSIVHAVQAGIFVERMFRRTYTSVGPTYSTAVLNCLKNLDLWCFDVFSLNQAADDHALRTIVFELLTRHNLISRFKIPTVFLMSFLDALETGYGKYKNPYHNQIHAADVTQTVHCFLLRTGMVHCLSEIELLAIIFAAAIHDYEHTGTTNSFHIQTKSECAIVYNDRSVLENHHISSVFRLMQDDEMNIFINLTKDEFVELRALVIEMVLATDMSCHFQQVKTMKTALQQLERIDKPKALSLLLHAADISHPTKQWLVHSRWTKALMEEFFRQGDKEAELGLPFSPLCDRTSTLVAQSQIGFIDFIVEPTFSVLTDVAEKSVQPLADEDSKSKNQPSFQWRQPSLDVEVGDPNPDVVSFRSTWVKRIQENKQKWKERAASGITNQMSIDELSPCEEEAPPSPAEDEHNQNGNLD
Chain of Cytochrome P450 1A2 (P05177 whole entry, the tested form may be a part): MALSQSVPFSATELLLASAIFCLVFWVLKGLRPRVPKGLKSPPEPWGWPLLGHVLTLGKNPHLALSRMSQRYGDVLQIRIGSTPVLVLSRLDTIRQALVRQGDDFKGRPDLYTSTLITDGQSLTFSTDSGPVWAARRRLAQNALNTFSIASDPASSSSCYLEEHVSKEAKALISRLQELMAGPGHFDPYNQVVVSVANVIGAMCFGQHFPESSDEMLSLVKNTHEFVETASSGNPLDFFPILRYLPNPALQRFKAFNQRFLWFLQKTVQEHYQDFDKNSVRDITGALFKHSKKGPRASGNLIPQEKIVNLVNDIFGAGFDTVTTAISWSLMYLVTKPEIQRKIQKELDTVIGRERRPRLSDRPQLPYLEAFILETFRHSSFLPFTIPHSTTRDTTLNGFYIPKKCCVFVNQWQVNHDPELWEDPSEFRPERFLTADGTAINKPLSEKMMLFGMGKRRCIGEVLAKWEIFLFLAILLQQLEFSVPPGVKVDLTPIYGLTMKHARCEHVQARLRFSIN
Chain of Cytochrome P450 2C9 (P11712 whole entry): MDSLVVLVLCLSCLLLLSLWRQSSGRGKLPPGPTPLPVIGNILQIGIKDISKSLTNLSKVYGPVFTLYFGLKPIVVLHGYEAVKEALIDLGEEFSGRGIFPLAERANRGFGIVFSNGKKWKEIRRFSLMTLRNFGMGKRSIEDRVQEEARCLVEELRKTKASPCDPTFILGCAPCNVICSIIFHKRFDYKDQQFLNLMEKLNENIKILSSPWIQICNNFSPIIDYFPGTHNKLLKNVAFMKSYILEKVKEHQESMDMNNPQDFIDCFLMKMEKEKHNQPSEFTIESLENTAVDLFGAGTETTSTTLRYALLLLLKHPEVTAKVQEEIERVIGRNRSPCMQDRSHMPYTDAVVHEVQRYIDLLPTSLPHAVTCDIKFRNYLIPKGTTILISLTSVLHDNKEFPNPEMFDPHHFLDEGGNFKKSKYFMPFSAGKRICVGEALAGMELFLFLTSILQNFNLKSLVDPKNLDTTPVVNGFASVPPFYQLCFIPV
Chain of High affinity cGMP-specific 3',5'-cyclic phosphodiesterase 9A (O76083 whole entry, the tested form may be a part): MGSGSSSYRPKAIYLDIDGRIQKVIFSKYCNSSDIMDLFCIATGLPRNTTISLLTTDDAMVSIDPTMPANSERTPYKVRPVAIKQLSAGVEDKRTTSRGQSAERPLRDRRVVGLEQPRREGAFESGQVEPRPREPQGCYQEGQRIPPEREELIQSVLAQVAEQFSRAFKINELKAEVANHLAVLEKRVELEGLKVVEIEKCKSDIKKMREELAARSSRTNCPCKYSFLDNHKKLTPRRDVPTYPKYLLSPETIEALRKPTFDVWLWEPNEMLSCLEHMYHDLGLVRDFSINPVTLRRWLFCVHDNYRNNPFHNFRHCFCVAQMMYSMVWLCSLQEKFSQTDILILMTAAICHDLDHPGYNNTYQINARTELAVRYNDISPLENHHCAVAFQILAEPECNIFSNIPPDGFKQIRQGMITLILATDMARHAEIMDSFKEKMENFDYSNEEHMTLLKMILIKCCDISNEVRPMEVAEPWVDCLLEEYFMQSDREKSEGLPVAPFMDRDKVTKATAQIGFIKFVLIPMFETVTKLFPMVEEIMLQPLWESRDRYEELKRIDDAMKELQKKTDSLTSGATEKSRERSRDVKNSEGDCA

COc1c(OCCCCCCC(=O)O)cc2oc3cc4c(c(O)c3c(=O)c2c1CC=C(C)C)C=CC(C)(C)O4
IC50 [1]: > 10000 nM | Ratio IC50 (Homo sapiens [2]): 36 | Activity (Mus musculus [3]): Active | Activity (Mus musculus [4]): Active | Activity [5]: 0% | IC50 [6]: 620 nM | half-life [7]: 3.48 h | IC50 (Cytochrome P450 2B6): > 10000 nM | IC50 [8]: > 10000 nM | fraction unbound at 1 µM [9]: 0.01 | AUC(0-inf) [10]: 4790 ng·h/mL | half-life [11]: 4.28 h | Ratio IC50 (Homo sapiens [12]): > 580 | AUC(0-inf) [13]: 6710 ng·h/mL | IC50 (Cytochrome P450 2C9): > 10000 nM | IC50 (Cytochrome P450 1A2): > 10000 nM | inhibition [14]: 60% | Activity [15]: Non-Toxic | IC50 [16]: > 10000 nM | Ratio IC50 (Homo sapiens [17]): > 580 | Ratio IC50 (Homo sapiens [18]): > 580 | Activity (Mus musculus [19]): Active | AUC(0-t) at 24 h [20]: 4740 ng·h/mL | Ratio IC50 (Homo sapiens [21]): > 580 | IC50 [22]: > 10000 nM | IC50 [23]: 8 nM | AUC(0-t) at 24 h [24]: 6670 ng·h/mL | IC50 [25]: 10 nM | Ratio IC50 (Homo sapiens [26]): > 580 | IC50 [27]: 9 nM | bioavailability [28]: 28% | Tmax [29]: 4.98 min
